The kinase profiling compilation of Christmann-Franck et al. (2016)

Assays:
MTOR (human) = MTOR (human) (UniProt P42345); assay: SelectScreen, TR FRET
PIK3C2A (human) = PIK3C2A (human) (UniProt O00443); assay: SelectScreen, TR FRET
PI4KA (human) = PI4KA (human) (UniProt P42356); assay: SelectScreen, TR FRET
PIK3C3 (human) = PIK3C3 (human) (UniProt Q8NEB9); assay: SelectScreen, TR FRET
PIK3C2B (human) = PIK3C2B (human) (UniProt O00750); assay: SelectScreen, TR FRET
PRKDC (human) = PRKDC (human) (UniProt P78527); assay: SelectScreen, TR FRET
PI4KB (human) = PI4KB (human) (UniProt Q9UBF8); assay: SelectScreen, TR FRET
SLK (human) = SLK (human) (UniProt Q9H2G2); assay: KINOMEscan competition binding; conditions: compound 10.0 µM
SRPK3 (human) = SRPK3 (human) (UniProt Q9UPE1); assay: KINOMEscan competition binding; conditions: compound 10.0 µM
ADCK3 (human) = ADCK3 (human) (UniProt Q8NI60); assay: KINOMEscan competition binding; conditions: compound 10.0 µM
EPHA1 (human) = EPHA1 (human) (UniProt P21709); assay: KINOMEscan competition binding; conditions: compound 10.0 µM
STK36 (human) = STK36 (human) (UniProt Q9NRP7); assay: KINOMEscan competition binding; conditions: compound 10.0 µM
PTK2B (human) = PTK2B (human) (UniProt Q14289); assay: KINOMEscan competition binding; conditions: compound 10.0 µM
[1] = test system: FLT3 (human), P36888 [D835H]; assay: KINOMEscan competition binding; conditions: compound 10.0 µM
EPHB4 (human) = EPHB4 (human) (UniProt P54760); assay: KINOMEscan competition binding; conditions: compound 10.0 µM
IGF1R (human) = IGF1R (human) (UniProt P08069); assay: KINOMEscan competition binding; conditions: compound 10.0 µM
CSK (human) = CSK (human) (UniProt P41240); assay: KINOMEscan competition binding; conditions: compound 10.0 µM
CSF1R (human) = CSF1R (human) (UniProt P07333); assay: KINOMEscan competition binding; conditions: compound 10.0 µM
[2] = test system: EGFR (human), P00533 [L858R]; assay: KINOMEscan competition binding; conditions: compound 10.0 µM
MAPKAPK2 (human) = MAPKAPK2 (human) (UniProt P49137); assay: KINOMEscan competition binding; conditions: compound 10.0 µM
MAPK6 (human) = MAPK6 (human) (UniProt Q16659); assay: KINOMEscan competition binding; conditions: compound 10.0 µM
STK32B (human) = STK32B (human) (UniProt Q9NY57); assay: KINOMEscan competition binding; conditions: compound 10.0 µM
STK38L (human) = STK38L (human) (UniProt Q9Y2H1); assay: KINOMEscan competition binding; conditions: compound 10.0 µM
MAP3K1 (human) = MAP3K1 (human) (UniProt Q13233); assay: KINOMEscan competition binding; conditions: compound 10.0 µM
SRPK1 (human) = SRPK1 (human) (UniProt Q96SB4); assay: KINOMEscan competition binding; conditions: compound 10.0 µM
RPS6KA1 KD2 (human) = RPS6KA1 KD2 (human) (UniProt Q15418); assay: KINOMEscan competition binding; conditions: compound 10.0 µM
ITK (human) = ITK (human) (UniProt Q08881); assay: KINOMEscan competition binding; conditions: compound 10.0 µM
CAMK1D (human) = CAMK1D (human) (UniProt Q8IU85); assay: KINOMEscan competition binding; conditions: compound 10.0 µM
[3] = test system: EGFR (human), P00533 [746-750 del]; assay: KINOMEscan competition binding; conditions: compound 10.0 µM
MAP3K12 (human) = MAP3K12 (human) (UniProt Q12852); assay: KINOMEscan competition binding; conditions: compound 10.0 µM
MELK (human) = MELK (human) (UniProt Q14680); assay: KINOMEscan competition binding; conditions: compound 10.0 µM
RPS6KA4 KD1 (human) = RPS6KA4 KD1 (human) (UniProt O75676); assay: KINOMEscan competition binding; conditions: compound 10.0 µM
RPS6KA3 KD1 (human) = RPS6KA3 KD1 (human) (UniProt P51812); assay: KINOMEscan competition binding; conditions: compound 10.0 µM
BMP2K (human) = BMP2K (human) (UniProt Q9NSY1); assay: KINOMEscan competition binding; conditions: compound 10.0 µM
PIP5K1C (human) = PIP5K1C (human) (UniProt O60331); assay: KINOMEscan competition binding; conditions: compound 10.0 µM
MAP2K1 (human) = MAP2K1 (human) (UniProt Q02750); assay: KINOMEscan competition binding; conditions: compound 10.0 µM
CASK (human) = CASK (human) (UniProt O14936); assay: KINOMEscan competition binding; conditions: compound 10.0 µM
ERBB4 (human) = ERBB4 (human) (UniProt Q15303); assay: KINOMEscan competition binding; conditions: compound 10.0 µM
ACVR1 (human) = ACVR1 (human) (UniProt Q04771); assay: KINOMEscan competition binding; conditions: compound 10.0 µM
CDK7 (human) = CDK7 (human) (UniProt P50613); assay: KINOMEscan competition binding; conditions: compound 10.0 µM
LIMK2 (human) = LIMK2 (human) (UniProt P53671); assay: KINOMEscan competition binding; conditions: compound 10.0 µM
CDC42BPG (human) = CDC42BPG (human) (UniProt Q6DT37); assay: KINOMEscan competition binding; conditions: compound 10.0 µM

Sequence of PTK2B (human) (Q14289 whole entry, looked up): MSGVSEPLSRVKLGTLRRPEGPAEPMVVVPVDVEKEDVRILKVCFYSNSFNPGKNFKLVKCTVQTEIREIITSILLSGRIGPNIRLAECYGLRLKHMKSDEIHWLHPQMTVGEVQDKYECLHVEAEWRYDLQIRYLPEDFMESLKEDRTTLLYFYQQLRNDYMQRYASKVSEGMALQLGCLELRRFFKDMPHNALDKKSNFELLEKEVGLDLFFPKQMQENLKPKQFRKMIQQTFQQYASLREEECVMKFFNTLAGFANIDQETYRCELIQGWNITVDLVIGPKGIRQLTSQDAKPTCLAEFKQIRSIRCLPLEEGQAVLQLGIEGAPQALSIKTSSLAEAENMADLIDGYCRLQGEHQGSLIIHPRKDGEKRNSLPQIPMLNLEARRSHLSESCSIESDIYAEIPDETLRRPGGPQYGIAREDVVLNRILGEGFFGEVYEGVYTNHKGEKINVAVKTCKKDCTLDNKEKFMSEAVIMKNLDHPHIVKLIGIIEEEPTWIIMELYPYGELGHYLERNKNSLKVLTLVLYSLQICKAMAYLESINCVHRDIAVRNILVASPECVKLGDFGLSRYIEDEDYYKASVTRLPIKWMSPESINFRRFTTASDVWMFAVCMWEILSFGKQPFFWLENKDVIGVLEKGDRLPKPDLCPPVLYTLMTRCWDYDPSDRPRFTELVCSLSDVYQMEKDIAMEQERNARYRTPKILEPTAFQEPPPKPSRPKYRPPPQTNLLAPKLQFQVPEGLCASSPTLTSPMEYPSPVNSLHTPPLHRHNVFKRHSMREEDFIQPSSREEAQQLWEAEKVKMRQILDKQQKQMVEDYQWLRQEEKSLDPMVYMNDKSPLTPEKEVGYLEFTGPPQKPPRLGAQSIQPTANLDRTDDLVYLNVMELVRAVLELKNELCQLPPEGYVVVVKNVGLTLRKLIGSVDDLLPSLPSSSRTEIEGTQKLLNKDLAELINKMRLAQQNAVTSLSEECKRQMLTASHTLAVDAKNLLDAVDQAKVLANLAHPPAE
Sequence of PIK3C2B (human) (O00750 whole entry, looked up): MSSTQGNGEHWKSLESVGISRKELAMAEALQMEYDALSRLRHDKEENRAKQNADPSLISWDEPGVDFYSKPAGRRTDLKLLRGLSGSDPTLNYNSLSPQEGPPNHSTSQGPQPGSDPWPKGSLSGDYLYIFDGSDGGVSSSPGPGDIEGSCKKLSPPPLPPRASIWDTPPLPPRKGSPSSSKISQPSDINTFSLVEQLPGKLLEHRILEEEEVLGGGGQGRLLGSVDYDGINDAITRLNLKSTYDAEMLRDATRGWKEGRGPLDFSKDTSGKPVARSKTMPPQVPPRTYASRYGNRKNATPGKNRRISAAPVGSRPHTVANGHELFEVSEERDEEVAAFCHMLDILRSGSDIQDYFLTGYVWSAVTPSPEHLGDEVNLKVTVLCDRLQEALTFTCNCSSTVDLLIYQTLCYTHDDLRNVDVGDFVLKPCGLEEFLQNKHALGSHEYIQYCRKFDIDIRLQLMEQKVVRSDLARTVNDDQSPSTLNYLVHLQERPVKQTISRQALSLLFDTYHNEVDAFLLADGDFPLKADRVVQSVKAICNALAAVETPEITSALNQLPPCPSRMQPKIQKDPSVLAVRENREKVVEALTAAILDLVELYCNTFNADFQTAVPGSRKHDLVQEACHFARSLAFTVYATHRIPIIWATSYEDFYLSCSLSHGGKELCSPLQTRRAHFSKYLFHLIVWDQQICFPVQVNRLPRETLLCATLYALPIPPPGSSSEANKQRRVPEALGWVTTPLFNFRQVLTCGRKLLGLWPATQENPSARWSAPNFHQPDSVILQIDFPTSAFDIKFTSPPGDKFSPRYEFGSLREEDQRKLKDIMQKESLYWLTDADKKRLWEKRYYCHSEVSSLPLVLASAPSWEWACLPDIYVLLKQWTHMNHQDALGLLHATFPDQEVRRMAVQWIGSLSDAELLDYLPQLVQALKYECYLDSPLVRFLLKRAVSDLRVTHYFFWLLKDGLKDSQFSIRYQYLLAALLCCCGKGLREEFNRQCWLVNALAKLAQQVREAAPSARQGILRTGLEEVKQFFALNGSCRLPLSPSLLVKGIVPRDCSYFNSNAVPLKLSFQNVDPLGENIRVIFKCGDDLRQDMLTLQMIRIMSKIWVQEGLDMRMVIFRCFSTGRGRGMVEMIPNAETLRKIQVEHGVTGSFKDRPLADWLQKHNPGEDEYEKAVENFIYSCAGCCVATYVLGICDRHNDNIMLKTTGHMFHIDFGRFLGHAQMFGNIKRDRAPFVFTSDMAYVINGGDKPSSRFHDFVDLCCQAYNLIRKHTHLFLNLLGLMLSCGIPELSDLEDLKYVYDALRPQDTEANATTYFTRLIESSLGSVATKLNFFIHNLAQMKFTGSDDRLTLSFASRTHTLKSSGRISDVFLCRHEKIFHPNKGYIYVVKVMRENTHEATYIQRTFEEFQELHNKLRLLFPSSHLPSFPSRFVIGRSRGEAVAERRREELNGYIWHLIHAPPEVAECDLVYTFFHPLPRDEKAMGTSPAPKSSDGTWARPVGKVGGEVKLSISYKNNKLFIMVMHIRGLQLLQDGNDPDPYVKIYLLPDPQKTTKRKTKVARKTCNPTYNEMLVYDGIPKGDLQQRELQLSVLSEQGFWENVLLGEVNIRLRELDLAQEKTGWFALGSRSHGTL
Sequence of MAPK6 (human) (Q16659 whole entry, looked up): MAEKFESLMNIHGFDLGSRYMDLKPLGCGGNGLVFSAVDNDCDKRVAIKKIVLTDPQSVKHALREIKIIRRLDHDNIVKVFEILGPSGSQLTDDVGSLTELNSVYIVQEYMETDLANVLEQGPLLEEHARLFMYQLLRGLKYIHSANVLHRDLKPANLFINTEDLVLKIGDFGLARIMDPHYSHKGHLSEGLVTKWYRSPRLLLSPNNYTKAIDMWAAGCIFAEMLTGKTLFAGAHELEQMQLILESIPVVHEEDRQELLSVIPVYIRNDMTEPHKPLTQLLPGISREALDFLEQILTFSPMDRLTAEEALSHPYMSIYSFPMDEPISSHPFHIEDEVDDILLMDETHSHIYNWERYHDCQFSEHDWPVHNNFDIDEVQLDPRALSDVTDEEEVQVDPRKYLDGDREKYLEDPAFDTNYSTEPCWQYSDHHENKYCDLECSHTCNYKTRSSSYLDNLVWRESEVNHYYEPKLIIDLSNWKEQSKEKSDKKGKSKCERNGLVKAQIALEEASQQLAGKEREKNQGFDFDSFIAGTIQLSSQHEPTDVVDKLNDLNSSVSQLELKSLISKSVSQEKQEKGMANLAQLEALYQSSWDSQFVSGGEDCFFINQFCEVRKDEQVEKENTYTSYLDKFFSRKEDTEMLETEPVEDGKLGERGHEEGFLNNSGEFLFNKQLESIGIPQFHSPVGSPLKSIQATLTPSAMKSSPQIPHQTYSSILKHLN
Sequence of LIMK2 (human) (P53671 whole entry, looked up): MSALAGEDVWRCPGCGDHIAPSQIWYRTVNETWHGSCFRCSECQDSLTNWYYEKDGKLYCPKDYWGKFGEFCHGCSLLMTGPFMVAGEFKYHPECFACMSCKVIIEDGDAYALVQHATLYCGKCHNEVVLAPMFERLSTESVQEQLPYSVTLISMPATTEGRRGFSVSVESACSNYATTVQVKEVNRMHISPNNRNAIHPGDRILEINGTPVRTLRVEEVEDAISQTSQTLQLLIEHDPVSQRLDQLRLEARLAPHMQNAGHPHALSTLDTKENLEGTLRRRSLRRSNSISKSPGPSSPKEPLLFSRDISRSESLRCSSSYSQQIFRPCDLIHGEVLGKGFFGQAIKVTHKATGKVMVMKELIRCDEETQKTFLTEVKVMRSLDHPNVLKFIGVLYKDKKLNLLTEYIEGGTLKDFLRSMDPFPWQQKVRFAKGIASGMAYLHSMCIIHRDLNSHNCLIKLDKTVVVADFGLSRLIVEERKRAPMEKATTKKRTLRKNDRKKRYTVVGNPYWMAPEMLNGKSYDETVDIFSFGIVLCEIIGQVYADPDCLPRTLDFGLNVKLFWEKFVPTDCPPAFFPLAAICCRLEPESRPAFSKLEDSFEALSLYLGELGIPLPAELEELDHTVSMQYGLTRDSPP
Sequence of MAP2K1 (human) (Q02750 whole entry, looked up): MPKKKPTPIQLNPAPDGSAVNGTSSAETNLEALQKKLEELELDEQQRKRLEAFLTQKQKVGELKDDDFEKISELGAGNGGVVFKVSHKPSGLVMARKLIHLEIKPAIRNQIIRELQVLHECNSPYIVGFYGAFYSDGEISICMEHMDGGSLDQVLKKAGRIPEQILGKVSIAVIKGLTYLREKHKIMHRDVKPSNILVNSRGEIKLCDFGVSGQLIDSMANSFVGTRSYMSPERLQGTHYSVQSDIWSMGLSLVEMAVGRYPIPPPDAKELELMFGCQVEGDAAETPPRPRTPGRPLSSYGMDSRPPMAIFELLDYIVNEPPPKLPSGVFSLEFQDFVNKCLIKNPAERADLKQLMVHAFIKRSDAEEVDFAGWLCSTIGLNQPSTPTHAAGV
Sequence of STK32B (human) (Q9NY57 whole entry, looked up): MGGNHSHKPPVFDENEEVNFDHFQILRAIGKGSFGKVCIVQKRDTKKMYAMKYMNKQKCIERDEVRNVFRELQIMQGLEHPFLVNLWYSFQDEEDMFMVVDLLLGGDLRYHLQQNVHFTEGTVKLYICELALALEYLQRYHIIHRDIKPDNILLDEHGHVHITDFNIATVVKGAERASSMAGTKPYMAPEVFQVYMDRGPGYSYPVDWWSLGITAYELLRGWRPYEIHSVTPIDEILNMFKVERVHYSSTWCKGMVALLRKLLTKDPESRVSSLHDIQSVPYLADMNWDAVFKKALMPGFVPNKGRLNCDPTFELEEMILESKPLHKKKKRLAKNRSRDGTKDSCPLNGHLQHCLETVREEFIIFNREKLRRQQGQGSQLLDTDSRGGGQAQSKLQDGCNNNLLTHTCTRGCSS

Cc1cc([C@@H](C)Nc2ccccc2C(=O)O)c2nc(N3CCOCC3)cc(=O)n2c1
IC50 (MTOR (human)): 3.93 µM | IC50 (PIK3C2A (human)): > 1 µM | IC50 (PI4KA (human)): 8.83 µM | IC50 (PIK3C3 (human)): 3.39 µM | IC50 (PIK3C2B (human)): 0.0541 µM | IC50 (PRKDC (human)): 0.0537 µM | IC50 (PI4KB (human)): > 10 µM | kinase still bound, per cent of control (SLK (human)): 85% | kinase still bound, per cent of control (SRPK3 (human)): 83% | kinase still bound, per cent of control (ADCK3 (human)): 70% | kinase still bound, per cent of control (EPHA1 (human)): 100% | kinase still bound, per cent of control (STK36 (human)): 82% | kinase still bound, per cent of control (PTK2B (human)): 90% | kinase still bound, per cent of control [1]: 32% | kinase still bound, per cent of control (EPHB4 (human)): 95% | kinase still bound, per cent of control (IGF1R (human)): 100% | kinase still bound, per cent of control (CSK (human)): 98% | kinase still bound, per cent of control (CSF1R (human)): 55% | kinase still bound, per cent of control [2]: 96% | kinase still bound, per cent of control (MAPKAPK2 (human)): 95% | kinase still bound, per cent of control (MAPK6 (human)): 78% | kinase still bound, per cent of control (STK32B (human)): 100% | kinase still bound, per cent of control (STK38L (human)): 92% | kinase still bound, per cent of control (MAP3K1 (human)): 100% | kinase still bound, per cent of control (SRPK1 (human)): 100% | kinase still bound, per cent of control (RPS6KA1 KD2 (human)): 76% | kinase still bound, per cent of control (ITK (human)): 100% | kinase still bound, per cent of control (CAMK1D (human)): 93% | kinase still bound, per cent of control [3]: 100% | kinase still bound, per cent of control (MAP3K12 (human)): 98% | kinase still bound, per cent of control (MELK (human)): 100% | kinase still bound, per cent of control (RPS6KA4 KD1 (human)): 93% | kinase still bound, per cent of control (RPS6KA3 KD1 (human)): 100% | kinase still bound, per cent of control (BMP2K (human)): 100% | kinase still bound, per cent of control (PIP5K1C (human)): 55% | kinase still bound, per cent of control (MAP2K1 (human)): 100% | kinase still bound, per cent of control (CASK (human)): 100% | kinase still bound, per cent of control (ERBB4 (human)): 94% | kinase still bound, per cent of control (ACVR1 (human)): 100% | kinase still bound, per cent of control (CDK7 (human)): 90% | kinase still bound, per cent of control (LIMK2 (human)): 100% | kinase still bound, per cent of control (CDC42BPG (human)): 99%
